The source of these data is the NIST ThermoML archive (doi:10.1016/j.jct.2014.09.004).

Numbers after ± are expanded uncertainties.

The conditions of the data set: Liquid; pulse heating.
As to `c1cc2c3c(cccc3c1)CC2` [acenaphthene], the Critical pressure came out at 3700 ± 110 kPa and the Critical temperature turned out to be 820 ± 8 K.
On to `c1ccc2cc3ccccc3cc2c1` [anthracene], for which the Critical pressure was 3170 ± 100 kPa and the Critical temperature was 894 ± 9 K.
For `c1ccc2c(c1)Cc1ccccc1-2` [fluorene], the Critical pressure came out at 3180 ± 100 kPa and the Critical temperature was 836 ± 8 K.
On the same counts, the results for `c1ccc2c(c1)ccc1ccccc12` [phenanthrene] are 3250 ± 100 kPa and 893 ± 9 K.
Turning to `c1cc2ccc3cccc4ccc(c1)c2c34` [pyrene], the Critical pressure is on record as 3030 ± 90 kPa and the Critical temperature is 974 ± 10 K.
